Experimental data published in patent US9475795B2 (TAKEDA PHARMACEUTICAL COMPANY LIMITED, priority 2012, dated 2016).

Target: human PKR1 receptors (Homo sapiens (Human), UniProt Q8TCW9)
Assay: PKR1 antagonist assay: block of PK1-mediated intracellular calcium release (FLIPR)
Type: cell-based
Conditions: RBL2H3 cells expressing human PKR1; 10 min preincubation; stimulation with PK1 at EC80; calcium fluorescence
Method: Prokineticin receptor 1 (PKR1) antagonists may be functionally assessed by measurement of change in intracellular calcium levels induced by Gq mediated increase in inositol triphosphate (IP3) levels. The ability of a compound to block the intracellular release of calcium mediated by PK1 in RBL2H3 cells expressing human PKR1 receptors is determined as a measure of the compound's antagonist activity in vitro.
Approximately 10,000 cells per assay well are seeded in normal culture medium in a 384 well plate (Corning). […]
To test for antagonist activity, test compounds at a final concentration range between 0.32 nM-10 μM (diluted in assay buffer) are added to the assay wells and allowed to incubate for 10 minutes prior to stimulation with PK1. After incubation with test compounds the assay plate is placed in a FLIPR Tetra (Molecular Devices) and PK1 (diluted in assay buffer) is added at the determined EC80 concentration (final). Ligand-dependent changes in intracellular calcium levels are determined by measuring changes in fluorescence of the dye at […] following excitation at 485 nm.

Chain of human PKR1 receptors (Q8TCW9 whole entry): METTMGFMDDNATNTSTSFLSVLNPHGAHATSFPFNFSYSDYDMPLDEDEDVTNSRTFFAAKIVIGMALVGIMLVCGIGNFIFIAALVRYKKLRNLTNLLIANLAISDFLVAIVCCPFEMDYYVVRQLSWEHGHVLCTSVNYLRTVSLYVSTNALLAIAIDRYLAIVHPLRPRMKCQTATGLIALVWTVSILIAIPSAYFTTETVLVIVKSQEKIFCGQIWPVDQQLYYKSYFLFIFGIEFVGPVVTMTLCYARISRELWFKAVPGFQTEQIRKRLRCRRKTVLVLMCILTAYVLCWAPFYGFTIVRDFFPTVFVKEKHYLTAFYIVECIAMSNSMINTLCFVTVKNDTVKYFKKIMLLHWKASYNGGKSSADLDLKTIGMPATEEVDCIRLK

**Q.** `Cc1nn(C)c(C)c1S(=O)(=O)N1CCC(N(C)c2ccc(Cl)cc2)CC1` [Example 53] was tested. Which IC50 did it give?
**A.** The IC50 was 900 nM.
